Reference: ChEMBL document CHEMBL3217649, “Synthesis of new N-substituted aminoquercitols from naturally available (+)-proto-quercitol and their -glucosidase inhibitory activity” (Medchemcomm, 2012)
Activity calls are given as the source filed them. The rule behind the calls is not given here.

Tests used:
[1] = Inhibition of baker's yeast type 1 alpha-glucosidase using p-nitrophenyl-alpha-D-glucopyranoside as substrate incubated for 10 mins prior to substrate challenge for 20 mins by microplate reader analysis; parameters: species or system Saccharomyces cerevisiae
[2] = Inhibition of type 2 alpha-glucosidase in rat small intestine using maltose as substrate after 10 mins by microplate reader analysis
[3] = target: Sucrase-isomaltase, intestinal (Rattus norvegicus) (UniProt P23739); assay: Inhibition of sucrase in rat small intestine using sucrose as substrate at 1 mg/ml after 40 mins by microplate reader analysis
Sequence of Sucrase-isomaltase, intestinal (Rattus norvegicus) (P23739 1-1013 limits assumed): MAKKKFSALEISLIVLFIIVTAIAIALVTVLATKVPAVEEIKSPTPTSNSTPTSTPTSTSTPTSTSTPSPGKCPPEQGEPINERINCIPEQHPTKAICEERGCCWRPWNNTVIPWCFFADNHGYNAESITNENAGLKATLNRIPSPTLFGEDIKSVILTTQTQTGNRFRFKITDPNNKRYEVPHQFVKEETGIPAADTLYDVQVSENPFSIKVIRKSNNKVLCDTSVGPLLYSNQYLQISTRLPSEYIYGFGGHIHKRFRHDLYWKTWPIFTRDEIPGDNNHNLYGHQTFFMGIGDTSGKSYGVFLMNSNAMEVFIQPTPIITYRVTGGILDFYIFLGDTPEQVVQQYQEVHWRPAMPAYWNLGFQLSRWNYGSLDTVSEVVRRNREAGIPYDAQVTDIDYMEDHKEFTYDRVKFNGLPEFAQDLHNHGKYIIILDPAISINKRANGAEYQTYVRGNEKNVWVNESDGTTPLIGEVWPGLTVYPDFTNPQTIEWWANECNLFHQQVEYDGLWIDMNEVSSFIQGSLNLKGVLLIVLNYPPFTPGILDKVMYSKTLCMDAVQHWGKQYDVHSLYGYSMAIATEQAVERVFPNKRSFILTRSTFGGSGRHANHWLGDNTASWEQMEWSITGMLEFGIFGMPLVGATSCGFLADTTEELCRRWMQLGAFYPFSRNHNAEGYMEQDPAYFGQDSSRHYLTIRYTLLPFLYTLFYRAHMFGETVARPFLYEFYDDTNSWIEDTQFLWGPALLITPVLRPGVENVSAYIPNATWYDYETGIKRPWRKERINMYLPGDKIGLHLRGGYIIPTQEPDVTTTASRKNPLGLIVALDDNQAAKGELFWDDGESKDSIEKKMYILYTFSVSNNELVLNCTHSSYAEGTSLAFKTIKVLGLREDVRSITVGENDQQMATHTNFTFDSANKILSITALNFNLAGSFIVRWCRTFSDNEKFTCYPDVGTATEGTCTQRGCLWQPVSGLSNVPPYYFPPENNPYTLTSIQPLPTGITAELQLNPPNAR
Sequence of Sucrase-isomaltase, intestinal (Rattus norvegicus) (P23739 1014-1841 limits assumed): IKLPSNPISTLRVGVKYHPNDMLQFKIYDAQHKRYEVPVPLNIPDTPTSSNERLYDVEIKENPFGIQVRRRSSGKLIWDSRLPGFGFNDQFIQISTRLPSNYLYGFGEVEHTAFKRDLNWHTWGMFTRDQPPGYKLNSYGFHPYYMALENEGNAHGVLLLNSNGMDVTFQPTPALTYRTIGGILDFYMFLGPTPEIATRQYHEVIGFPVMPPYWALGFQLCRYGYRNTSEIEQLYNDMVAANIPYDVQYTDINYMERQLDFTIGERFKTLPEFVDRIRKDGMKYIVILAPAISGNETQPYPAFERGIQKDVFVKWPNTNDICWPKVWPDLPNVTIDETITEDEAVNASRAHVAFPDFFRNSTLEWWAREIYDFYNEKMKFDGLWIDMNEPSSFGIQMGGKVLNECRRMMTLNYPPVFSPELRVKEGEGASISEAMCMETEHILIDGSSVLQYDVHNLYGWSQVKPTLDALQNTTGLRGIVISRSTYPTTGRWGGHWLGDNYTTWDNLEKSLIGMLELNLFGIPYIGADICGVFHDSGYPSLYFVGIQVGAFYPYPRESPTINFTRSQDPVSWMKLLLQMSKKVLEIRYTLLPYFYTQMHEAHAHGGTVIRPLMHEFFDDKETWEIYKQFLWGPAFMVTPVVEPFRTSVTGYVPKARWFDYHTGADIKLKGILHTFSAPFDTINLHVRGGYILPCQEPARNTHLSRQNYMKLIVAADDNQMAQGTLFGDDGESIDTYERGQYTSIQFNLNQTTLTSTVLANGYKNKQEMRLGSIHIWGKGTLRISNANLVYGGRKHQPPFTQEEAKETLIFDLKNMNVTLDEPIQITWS

[4] = target: Sucrase-isomaltase, intestinal (Rattus norvegicus, UniProt P23739); assay: Inhibition of sucrase in rat small intestine using sucrose as substrate after 40 mins by microplate reader analysis
Sequence of Sucrase-isomaltase, intestinal (P23739 1-1013 limits assumed): as the sequence (P23739 1-1013 limits assumed) above
Sequence of Sucrase-isomaltase, intestinal (P23739 1014-1841 limits assumed): as the sequence (P23739 1014-1841 limits assumed) above

Saccharomyces cerevisiae [5] = assay: Inhibition of baker's yeast type 1 alpha-glucosidase using p-nitrophenyl-alpha-D-glucopyranoside as substrate at 10 mg/ml incubated for 10 mins prior to substrate challenge for 20 mins by microplate reader analysis
Rattus norvegicus [6] = species: Rattus norvegicus; assay: Inhibition of type 2 alpha-glucosidase in rat small intestine using maltose as substrate at 1 mg/ml after 10 mins by microplate reader analysis
Rattus norvegicus [7] = species: Rattus norvegicus; assay: Ratio of acarbose IC50 to compound IC50 for type 2 alpha-glucosidase in rat small intestine
Rattus norvegicus [8] = species: Rattus norvegicus; assay: Competitive inhibition of maltase in rat small intestine using maltose as substrate by Lineweaver-Burk plot analysis
[9] = Inhibition of maltase in rat small intestine using maltose as substrate by Lineweaver-Burk plot based secondary replot analysis; format: tissue-based
Saccharomyces cerevisiae [10] = assay: Ratio of acarbose IC50 to compound IC50 for baker's yeast type 1 alpha-glucosidase

| IC50 [2] | inhibition [3] | inhibition (Saccharomyces cerevisiae [5]) | SMILES | IC50 [1] | other results |
| --- | --- | --- | --- | --- | --- |
| 180 µM | < 30% | – | CC(=O)N[C@H]1C[C@@H](O)[C@H](O)[C@@H](O)[C@H]1O | 270 µM | – |
| 4.2 µM | < 30% | < 30% | CCCCCC(=O)N[C@H]1C[C@@H](O)[C@H](O)[C@@H](O)[C@H]1O | – | – |
| 3.5 µM | < 30% | < 30% | CCCCCCCCCC(=O)N[C@@H]1C[C@@H](O)[C@H](O)[C@@H](O)[C@H]1O | – | – |
| 38 µM | < 30% | < 30% | CCCC(=O)N[C@H]1C[C@@H](O)[C@H](O)[C@@H](O)[C@H]1O | – | – |
| 2 µM | < 30% | < 30% | CCCCCCCCCC(=O)N[C@H]1C[C@@H](O)[C@H](O)[C@@H](O)[C@H]1O | – | competitive inhibition (Lineweaver-Burk) (Rattus norvegicus [8]): Active; Ki [9]: 1.5 µM |
| 3.8 µM | – | – | CCCCCC(=O)N[C@@H]1C[C@@H](O)[C@H](O)[C@@H](O)[C@H]1O | 1700 µM | IC50 [4]: 6.1 µM |
| 5.3 µM | – | – | CC(=O)N[C@@H]1C[C@@H](O)[C@H](O)[C@@H](O)[C@H]1O | 150 µM | IC50 [4]: 5.3 µM; Ratio IC50 (Saccharomyces cerevisiae [10]): 3 |
| 19 µM | – | – | CCCC(=O)N[C@@H]1C[C@@H](O)[C@H](O)[C@@H](O)[C@H]1O | 1200 µM | IC50 [4]: 4.7 µM |
| 10 µM | < 30% | < 30% | CCCCCCCCCCCC(=O)N[C@H]1C[C@@H](O)[C@H](O)[C@@H](O)[C@H]1O | – | – |

Further lines, the compound ahead of its results:

| SMILES | IC50 [2] | inhibition [3] | inhibition (Saccharomyces cerevisiae [5]) | IC50 [1] | other results |
| --- | --- | --- | --- | --- | --- |
| CCCCN(CCCC)[C@@H]1C[C@@H](O)[C@H](O)[C@@H](O)[C@H]1O | 7.6 µM | < 30% | – | 1800 µM | – |
| CCCCN(CCCC)[C@H]1C[C@@H](O)[C@H](O)[C@@H](O)[C@H]1O | 24 µM | – | – | 2300 µM | IC50 [4]: 36 µM |
| CCN[C@H]1C[C@@H](O)[C@H](O)[C@@H](O)[C@H]1O | – | < 30% | < 30% | – | inhibition (Rattus norvegicus [6]): 30% |
| CCCCCCCCCCN[C@@H]1C[C@@H](O)[C@H](O)[C@@H](O)[C@H]1O | 0.41 µM | < 30% | < 30% | – | Ratio IC50 (Rattus norvegicus [7]): 3 |
| CCCCCCCCCCCC(=O)N[C@@H]1C[C@@H](O)[C@H](O)[C@@H](O)[C@H]1O | 7.4 µM | < 30% | < 30% | – | – |
| CCN(CC)[C@@H]1C[C@@H](O)[C@H](O)[C@@H](O)[C@H]1O | 5 µM | < 30% | – | 1600 µM | competitive inhibition (Lineweaver-Burk) (Rattus norvegicus [8]): Active; Ki [9]: 3.5 µM |
| CCCCCCN(CCCCCC)[C@@H]1C[C@@H](O)[C@H](O)[C@@H](O)[C@H]1O | 48 µM | < 30% | < 30% | – | – |
| CCCCCCCCCCCCN[C@H]1C[C@@H](O)[C@H](O)[C@@H](O)[C@H]1O | 1.9 µM | < 30% | < 30% | – | – |
| C[C@H]1O[C@H](O[C@H]2[C@H](O)[C@@H](O)[C@@H](O[C@H]3[C@H](O)[C@@H](O)C(O)O[C@@H]3CO)O[C@@H]2CO)[C@H](O)[C@@H](O)[C@@H]1N[C@H]1C=C(CO)[C@@H](O)[C@H](O)[C@H]1O (stereo partly drawn) [ACARBOSE] | 1.5 µM | – | – | 480 µM | competitive inhibition (Lineweaver-Burk) (Rattus norvegicus [8]): Active; Ki [9]: 0.99 µM |
| CCCCCCN(CCCCCC)[C@H]1C[C@@H](O)[C@H](O)[C@@H](O)[C@H]1O | 32 µM | – | < 30% | – | IC50 [4]: 120 µM |
| CCCCCCCCCCCCN[C@@H]1C[C@@H](O)[C@H](O)[C@@H](O)[C@H]1O | 1.5 µM | < 30% | < 30% | – | – |
| CCCCN[C@@H]1C[C@@H](O)[C@H](O)[C@@H](O)[C@H]1O | 57 µM | < 30% | – | 1200 µM | – |
| CCCCN[C@H]1C[C@@H](O)[C@H](O)[C@@H](O)[C@H]1O | 290 µM | < 30% | < 30% | – | – |
| CCCCCCCCCCN[C@H]1C[C@@H](O)[C@H](O)[C@@H](O)[C@H]1O | 2 µM | – | < 30% | – | IC50 [4]: 410 µM |
| CCN(CC)[C@H]1C[C@@H](O)[C@H](O)[C@@H](O)[C@H]1O | 21 µM | – | – | 1600 µM | IC50 [4]: 360 µM |
| CCCCCCN[C@H]1C[C@@H](O)[C@H](O)[C@@H](O)[C@H]1O | 2.5 µM | < 30% | < 30% | – | – |
| CCCCCCN[C@@H]1C[C@@H](O)[C@H](O)[C@@H](O)[C@H]1O | 0.24 µM | < 30% | – | 400 µM | Ratio IC50 (Rattus norvegicus [7]): 3; competitive inhibition (Lineweaver-Burk) (Rattus norvegicus [8]): Active; Ki [9]: 0.73 µM |
